The numbers were not newly measured in patent publication US20240374497A1, “COMPOSITIONS COMPRISING OR2AT4 AGONISTS” (Coty Inc., priority 2021, published 2024), which cites them from elsewhere.

For data set [1], the system named is human epidermal keratinocyte. The following applies: in vitro; selective activation of OR2AT4.
Another data set deals with human epidermis. The following applies: ex vivo; selective activation of OR2AT4.
The target in data set [2] is T1, olfactory receptor OR2AT4 (Homo sapiens, UniProt A6NND4).
T1 sequence (A6NND4 1-320): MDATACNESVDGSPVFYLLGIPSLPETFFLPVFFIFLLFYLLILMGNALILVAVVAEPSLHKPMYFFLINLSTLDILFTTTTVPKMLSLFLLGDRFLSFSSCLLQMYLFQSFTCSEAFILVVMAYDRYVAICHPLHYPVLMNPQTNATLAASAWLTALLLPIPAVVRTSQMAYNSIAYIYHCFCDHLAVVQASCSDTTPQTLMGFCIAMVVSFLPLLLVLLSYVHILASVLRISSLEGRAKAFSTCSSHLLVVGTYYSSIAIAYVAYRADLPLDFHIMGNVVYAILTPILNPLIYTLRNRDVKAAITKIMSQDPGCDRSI
The following applies: receptor expressed in the epithelium of human hair follicles.

Take `CC1=CCC(CCC(C)C(C)O)C1(C)C` (stereo not drawn) [Sandalore®]: the “human epidermal keratinocyte migration and proliferation” value in data set [1] was “promotes human epidermal keratinocyte migration and proliferation”. Moreover, the wound re-epithelialization entry in the data set with human epidermis is recorded as “promotes”.
Take `CC1=CCC(CCC(C)C(C)O)C1(C)C` (stereo not drawn) [sandal pentanol, 3-methyl-5-(2,2,3-trimethylcyclopent-3-en-1-yl)pentan-2-ol]: the “hair growth ex vivo” value in the data set with human hair follicles was “prolongs hair growth”. Further, in the data set with human hair follicles (ex vivo), the apoptosis entry is “decreasing apoptosis” and the “production of growth factor IGF-1” value is reported as “increasing the production of growth factor IGF-1”. In addition, the “effect on the olfactory receptor OR2AT4” value in data set [2] is recorded as “stimulatory effect”.
